Assay results taken from article PMC11678869, “Functional Role of Odorant-Binding Proteins in Response to Sex Pheromone Component Z8-14:Ac in Grapholita molesta (Busck)” (Insects, 2024).
Where two headings read alike, the source gives them in different places.

Columns and labels:
PFM male antennae = test: Electroantennogram (EAG) analysis; parameters: species or system Grapholita funebrana; details: 20, 200 and 2000 μg doses
Method: (§1) Electroantennogram (EAG) equipment (Syntech, Hilversum, The Netherlands) was used to record the antennal responses of the OFM and PFM adults to Z8-12:Ac, E8-12:Ac, Z8-12:OH, Z8-14:Ac, and Z10-14:Ac. These sex pheromone compounds were diluted with liquid paraffin to prepare a stimulus solution of 100 μg/μL, which was subsequently diluted to 10 and 1 μg/μL. Antenna from 3-day-old OFM and 2- to 4-day-old PFM virgin males were excised at its base, with the distal part of the terminal segment being removed. Then, the treated antenna was attached to electrode holders with SpectraR360 conducting gel. A stimulus controller (model CS-55, Syntegon Technology, Waiblingen, Germany) continuously supplied a humidified air stream at a rate of 500 mL/min. Then, 20 μL of each stimulus solution was adsorbed onto a twice-folded filter paper strip (0.5 cm × 4 cm) placed on the wide section of a l mL pipette tip, which served as an odorant cartridge. Vapor stimuli were delivered by an air compressor into the constant air stream described above, flowing in a copper delivery tube (i.d. 8 mm) with the outlet positioned approximately 1 cm from the antenna. The EAG amplitude tests of the OFM and PFM males’ responses to sex pheromones started with solvent control stimuli (20 μL of liquid paraffin), followed by stimulation with 20, 200, and 2000 μg doses (20 μL of 1.0, 10.0, and 100.0 μg/μL of liquid paraffin solutions, respectively) of stimulus in sequence. The solvent control was performed at the end of the run. To control for variations among antennae, each sample was tested on 10 antennae of different males. The EAG signals and data were analyzed using EAG 2000 software (Syntech, Hilversum, The Netherlands). The corrected EAG amplitude value = absolute EAG amplitude value − (EAGck1 + EAGck2)/2, where EAGck1 and EAGck2 represent the absolute EAG amplitude values of the solvent control before and after measuring each stimulus, respectively. The relative EAG response of the OFM and PFM males to the same doses of sex pheromones were subjected to an analysis of independent sample t-test (p = 0.05) using SPSS version 23.0 (IBM).

OFM male antennae = test: Electroantennogram (EAG) analysis; parameters: species or system Grapholita molesta
Method: as §1

rGmolPBP2 (wild-type) = rGmolPBP2 (wild-type) (Grapholita molesta, UniProt A0A059VC28); test: Fluorescence competitive binding assay with 1-NPN probe
Sequence of rGmolPBP2 (wild-type) (A0A059VC28 entry or part of it): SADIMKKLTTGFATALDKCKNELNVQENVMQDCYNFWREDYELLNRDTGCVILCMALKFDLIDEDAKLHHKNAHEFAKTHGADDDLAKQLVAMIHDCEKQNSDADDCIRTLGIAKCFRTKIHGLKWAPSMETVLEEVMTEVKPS
Description: (§2) Previous researchers have successfully expressed rGmolPBP1, rGmolPBP2, rGmolPBP3, rGmolGOBP1, and rGmolGOBP2 proteins using prokaryotic expression systems. In this article, the DNA sequences of these five GmolPBPs and GmolGOBPs, with the signal peptides removed and restriction sites on both ends, were inserted into the expression vector pET28a(+) linearized with the same restriction enzyme. These vectors were then transformed into Escherichia coli BL21(DE3) and induced by isopropyl-β-d-thiogalactoside (IPTG). Since all five recombinant proteins were expressed in inclusion bodies, they were denatured using 8 M urea and then renatured using a cysteine/cystine REDOX system. The reduced recombinant proteins were purified using an Ni-NTA His Bind Resin column (7Sea Pharmatech Co., Ltd., Shanghai, China). Non-target proteins were washed off with washing buffer (20 mM Tris-HCl (pH 7.4), 20 mM imidazole, 1 mM PMSF, and 250 mM NaCl), and then the target proteins were eluted with elution buffer (20 mM Tris-HCl (pH 7.4), 1 mM PMSF, and 250 mM NaCl) with an increasing concentration of imidazole (50, 100, and 200 mM). Five milliliters of eluents with high target protein content and low levels of contaminants were collected and placed in dialysis tubing (Coolaber, Beijing, China) with a molecular weight cut-off of 3.5 kDa to remove NaCl and imidazole. The purified soluble proteins were stored at −80 °C before use.
(§3) The binding affinities of three rGmolPBPs and two rGmolGOBPs for Z8-14:Ac were determined using an F-2700 fluorescence spectrophotometer (Hitachi, Tokyo, Japan). First, we measured the dissociation constants (Kd) of the rGmolPBPs (or rGmolGOBPs) binding to 1−NPN. Each protein was diluted to 2 μM with 20 mM Tris-HCl buffer (pH 7.4); then, 2 mL of the protein solution was transferred to a quartz cuvette and titrated with 1 mM 1−NPN to a final concentration of 1–18 μM. As the doses of 1−NPN were increased, the increasing amplitude of the fluorescence intensity decreased, and finally, the binding of the protein to 1−NPN reached saturation. The Kd values were calculated using the nonlinear regression method and the Scatchard equation. Second, we measured the inhibitory constant (Ki) of Z8-14:Ac’s competitive binding with each rGmolPBP (or rGmolGOBP) from the protein/1−NPN complex. The initial fluorescence intensity values were measured after a 2 min reaction in 2 mL solution of 20 mM Tris-HCl (pH 7.4) containing 2 µM rGmolPBP (or rGmolGOBP) protein and 2 µM 1−NPN. Then, the solution was titrated with aliquots of 1 mM Z8-14:Ac to obtain final concentrations in the range of 1–14 µM, and the fluorescence intensity value of each reaction was recorded. The Ki values were calculated using the following equation: Ki = [IC50]/(1 + [1 − NPN]/Kd) where IC50 is the concentration of Z8-14:Ac when half of the initial fluorescence intensity value of the rGmolPBP (or GmolGOBP)/1−NPN complex is replaced, [1 − NPN] represents the concentration of free 1−NPN, and Kd is the dissociation constant of the rGmolPBP (or GmolGOBP)/1−NPN complex.

rGmolGOBP2 = rGmolGOBP2 (Grapholita molesta, UniProt H9XTU6); test: as above
Sequence of rGmolGOBP2 (H9XTU6 entry or part of it): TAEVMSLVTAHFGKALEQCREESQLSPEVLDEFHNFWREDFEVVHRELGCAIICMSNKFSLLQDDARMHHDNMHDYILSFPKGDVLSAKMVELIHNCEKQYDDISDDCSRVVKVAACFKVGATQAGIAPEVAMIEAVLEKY
Description: as §2, §3

rGmolGOBP1 = rGmolGOBP1 (Grapholita molesta, UniProt H9XTU5); test: as above; details: for Ki: calculated from IC50 and Kd of 1-NPN
Sequence of rGmolGOBP1 (H9XTU5 entry or part of it): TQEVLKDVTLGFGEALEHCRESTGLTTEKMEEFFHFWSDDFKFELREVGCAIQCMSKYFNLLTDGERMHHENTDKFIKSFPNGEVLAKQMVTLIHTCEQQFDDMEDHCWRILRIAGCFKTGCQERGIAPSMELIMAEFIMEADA
Description: as §2, §3

rGmolPBP3 = rGmolPBP3 (Grapholita molesta, UniProt A0A059VBP3); test: as above
Sequence of rGmolPBP3 (A0A059VBP3 entry or part of it): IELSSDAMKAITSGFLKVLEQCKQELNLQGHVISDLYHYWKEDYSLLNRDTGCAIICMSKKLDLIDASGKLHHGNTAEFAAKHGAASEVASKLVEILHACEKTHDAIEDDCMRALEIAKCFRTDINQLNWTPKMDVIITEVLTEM
Description: as §2, §3

rGmolPBP1 = rGmolPBP1 (Grapholita molesta, UniProt A0A2R4SBD6); test: as above
Sequence of rGmolPBP1 (A0A2R4SBD6 entry or part of it): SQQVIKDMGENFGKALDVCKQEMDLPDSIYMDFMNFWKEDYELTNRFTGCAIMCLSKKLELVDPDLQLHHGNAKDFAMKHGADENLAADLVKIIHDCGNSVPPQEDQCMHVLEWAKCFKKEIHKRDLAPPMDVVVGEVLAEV
Description: as §2, §3

[1] = 2 μM protein, 2 μM 1-NPN, pH 7.4, read-out: IC50 (displacement of 1-NPN)
[2] = calculated from IC50 and Kd of 1-NPN

## CCCCC/C=C\CCCCCCCOC(C)=O [Z8-14:Ac, (Z)-8-tetradecenyl acetate]
PFM male antennae
  EAG response of PFM males: moderate EAG response
OFM male antennae; 20, 200 and 2000 μg
  EAG values of OFM males compared with PFM males: significantly higher than those of the PFM males
OFM male antennae; 20, 200 and 2000 μg doses
  EAG response of OFM males: moderate EAG response
rGmolPBP2 (wild-type); [1]
  IC50: 1260 ± 40 nM
rGmolPBP2 (wild-type); [2]
  Ki: 660 ± 20 nM
rGmolGOBP2; [1]
  IC50: 3530 ± 220 nM
rGmolGOBP2; [2]
  Ki: 2860 ± 180 nM
rGmolGOBP1; [1]
  IC50: > 14000 nM
rGmolGOBP1
  Ki: could not be calculated
rGmolGOBP1; read-out: Ki
  Ki: > 14000 nM
rGmolPBP3; [1]
  IC50: 2780 ± 320 nM
rGmolPBP3; [2]
  Ki: 2560 ± 270 nM
rGmolPBP1; [1]
  IC50: 2930 ± 70 nM
rGmolPBP1; [2]
  Ki: 1660 ± 40 nM
